Values of other authors, collected in PubChem BioAssay AID1259409 (Chemical Carcinogenesis Research Information System (CCRIS), 2018).
Where a SMILES comes first, the peptide text is derived from it. [ ]: non-standard residue; d: D form. The star is where a group is joined. Sta = CC(C)C[C@H](N)[C@@H](O)CC(=O)O; Isovaleryl = CC(C)CC(=O)*

Test system: rodent chemically induced tumor inhibition, incidence and multiplicity
Assay: CCRIS tumor inhibitor studies

For `COc1cc2c3cc1Oc1c(OC)c(OC)cc4c1[C@@H](Cc1ccc(O)c(c1)Oc1ccc(cc1)C[C@@H]3N(C)CC2)N(C)CC4`, the “tumour outcome (control, treated, inhibition, significance)” value (Carcinogen: 7,12-DIMETHYLBENZ[A]ANTHRACENE, 57-97-6, Dose [Inhibitor]: 0, 2 UMOL 2/WK 30 MIN PRIOR TO EACH PROMOTER DOSE BEGINNING 1 WK POST CARCINOGEN DOSE (STUDY DURATION: 18 WK), Route [Inhibitor]: DERMAL, Species: MOUSE, Strain/Sex: ICR/FEMALE, Target Tissue: Type of Lesion: SKIN: PAPILLOMA, Dose [Carcinogen]: 50 UG ONCE, Promoter: 12-O-TETRADECANOYLPHORBOL-13-ACETATE, 16561-29-8) is listed as 100%, 20%, 80%, not calculated.

In the case of `CCOC(=O)c1ccc(/C=C(\C)c2ccc3c(c2)C(C)(C)CCC3(C)C)cc1`, the “tumour outcome (control, treated, inhibition, significance)” value (Carcinogen: 7,12-DIMETHYLBENZ[A]ANTHRACENE, 57-97-6, Dose [Inhibitor]: 0, 24 UG/KG IN ARACHIS OIL (5 ML/KG) REDUCED TO 16 UG/KG AFTER 4 WK 5/WK BEGINNING 1 D POST CARCINOGEN DOSE (STUDY DURAT, Route [Inhibitor]: GAVAGE, Species: RAT, Strain/Sex: SPRAGUE-DAWLEY/FEMALE, Target Tissue: Type of Lesion: MAMMARY GLAND: TUMOR, Dose [Carcinogen]: 15 MG IN ARACHIS OIL ONCE AT 50 D OF AGE, Promoter: NONE USED) is listed as 96%, 72%, 25%, not calculated.

In the case of `CN=C(NC#N)NCCSCc1nc[nH]c1C`, the “tumour outcome (control, treated, inhibition, significance)” value (Carcinogen: 7,12-DIMETHYLBENZ[A]ANTHRACENE, 57-97-6, Dose [Inhibitor]: 0, 10 MG A WK IN DRINKING WATER BEGINNING 1 WK POST CARCINOGEN DOSE AND CONTINUING FOR DURATION OF STUDY (STUDY DURATION, Route [Inhibitor]: ORAL, Species: MOUSE, Strain/Sex: SENCAR/MALE, Target Tissue: Type of Lesion: SKIN: PAPILLOMA, Dose [Carcinogen]: 100 NMOL IN 200 µL ACETONE ONCE, Promoter: 12-O-TETRADECANOYLPHORBOL-13-ACETATE, 16561-29-8) is listed as 95%, 100%, -5%, not calculated, the “tumour outcome (control, treated, inhibition, significance)” value (Carcinogen: N-METHYL-N'-NITRO-N-NITROSOGUANIDINE, 70-25-7, Dose [Inhibitor]: 10 MG/KG BW IN DEPOT FORM 1/2 D BEGINNING 1 WK POST LAST CARCINOGEN DOSE FOR DURATION OF STUDY (STUDY DURATION: 52 WK), Route [Inhibitor]: SUBCUTANEOUS, Species: RAT, Strain/Sex: WISTAR/MALE, Target Tissue: Type of Lesion: STOMACH: ADENOCARCINOMA, Dose [Carcinogen]: 50 UG/ML IN DRINKING WATER FOR 25 WK, Promoter: NONE USED) is listed as 12/19 (63%), 13/19 (68%), -8%, not calculated and the “tumour outcome (control, treated, inhibition, significance)” value (Carcinogen: N-METHYL-N'-NITRO-N-NITROSOGUANIDINE, 70-25-7, Dose [Inhibitor]: 20 MG/KG BW IN DEPOT FORM 1/2 D BEGINNING 1 WK POST LAST CARCINOGEN DOSE FOR DURATION OF STUDY (STUDY DURATION: 52 WK), Route [Inhibitor]: SUBCUTANEOUS, Species: RAT, Strain/Sex: WISTAR/MALE, Target Tissue: Type of Lesion: STOMACH: ADENOCARCINOMA, Dose [Carcinogen]: 50 UG/ML IN DRINKING WATER FOR 25 WK, Promoter: NONE USED) is listed as 12/19 (63%), 11/19 (58%), 8%, not calculated.

For `O=CCc1c[nH]c2ccccc12`, the “tumour outcome (control, treated, inhibition, significance)” value (Carcinogen: 7,12-DIMETHYLBENZ[A]ANTHRACENE, 57-97-6, Dose [Inhibitor]: 0.1 MMOL IN 1 ML DIMETHYL SULFOXIDE ONCE 20 HR PRIOR TO CARCINOGEN ADMINISTRATION FOLLOWED BY A 14 WK OBSERVATION PERIOD, Route [Inhibitor]: GAVAGE, Species: RAT, Strain/Sex: SPRAGUE-DAWLEY/FEMALE, Target Tissue: Type of Lesion: MAMMARY GLAND: TUMOR, Dose [Carcinogen]: 12 MG IN 1 ML OLIVE OIL ONCE, Promoter: NONE USED) is given as 64%, 36%, 44%, not significant.

For `O=C1CCN(c2ccccc2)N1`, the “tumour outcome (control, treated, inhibition, significance)” value (Carcinogen: 7,12-DIMETHYLBENZ[A]ANTHRACENE, 57-97-6, Dose [Inhibitor]: 30 UMOL APPLIED 30-40 MIN BEFORE EACH TPA TREATMENT AND CONCURRENTLY WITH TPA (STUDY DURATION: 18 WK), Route [Inhibitor]: DERMAL, Species: MOUSE, Strain/Sex: CD-1/FEMALE, Target Tissue: Type of Lesion: SKIN: PAPILLOMA, Dose [Carcinogen]: 200 NMOL ONCE, Promoter: 12-O-TETRADECANOYLPHORBOL-13-ACETATE, 16561-29-8) is given as 96%, 100%, -4%, not calculated.

For `CC(C)(C)NC(=O)[C@H]1CC[C@H]2[C@@H]3CC[C@H]4NC(=O)C=C[C@]4(C)[C@H]3CC[C@]12C`, the “tumour outcome (control, treated, inhibition, significance)” value (Carcinogen: N-BUTYL-N-(4-HYDROXYBUTYL)NITROSAMINE, 3817-11-6, Dose [Inhibitor]: 0, 2 MG/KG 2/WK FOR 11 WK BEGINNING POST CARCINOGEN TREATMENT (STUDY DURATION: 21WK), Route [Inhibitor]: ORAL, Species: RAT, Strain/Sex: WISTAR/MALE, Target Tissue: Type of Lesion: URINARY BLADDER: CARCINOMA, Dose [Carcinogen]: 0.05% IN DRINKING WATER FOR 10 WK, Promoter: NONE USED) is listed as 15/17 (88%), 12/17 (71%), 19%, not significant, the “tumour outcome (control, treated, inhibition, significance)” value (Carcinogen: N-BUTYL-N-(4-HYDROXYBUTYL)NITROSAMINE, 3817-11-6, Dose [Inhibitor]: 0, 2 MG/KG 2/WK FOR 13 WK BEGINNING POST CARCINOGEN TREATMENT (STUDY DURATION: 20WK), Route [Inhibitor]: ORAL, Species: RAT, Strain/Sex: WISTAR/MALE, Target Tissue: Type of Lesion: URINARY BLADDER: CARCINOMA, Dose [Carcinogen]: 0.05% IN DRINKING WATER FOR 7 WK, Promoter: NONE USED) is listed as 25/39 (64%), 9/20 (45%), 30%, not significant and the “tumour outcome (control, treated, inhibition, significance)” value (Carcinogen: N-BUTYL-N-(4-HYDROXYBUTYL)NITROSAMINE, 3817-11-6, Dose [Inhibitor]: 0, 4 MG/KG 2/WK FOR 13 WK BEGINNING POST CARCINOGEN TREATMENT (STUDY DURATION: 20 WK), Route [Inhibitor]: ORAL, Species: RAT, Strain/Sex: WISTAR/MALE, Target Tissue: Type of Lesion: URINARY BLADDER: CARCINOMA, Dose [Carcinogen]: 0.05% IN DRINKING WATER FOR 7 WK, Promoter: NONE USED) is listed as 25/39 (64%), 9/20 (45%), 30%, not significant. The “tumour outcome (control, treated, inhibition, significance)” value (Carcinogen: N-BUTYL-N-(4-HYDROXYBUTYL)NITROSAMINE, 3817-11-6, Dose [Inhibitor]: 0, 8 MG/KG 2/WK FOR 13 WK BEGINNING POST CARCINOGEN TREATMENT (STUDY DURATION: 20 WK), Route [Inhibitor]: ORAL, Species: RAT, Strain/Sex: WISTAR/MALE, Target Tissue: Type of Lesion: URINARY BLADDER : CARCINOMA, Dose [Carcinogen]: 0.05% IN DRINKING WATER FOR 7 WK, Promoter: NONE USED) was 25/39 (64%), 8/20 (40%), 38%, not significant and the “tumour outcome (control, treated, inhibition, significance)” value (Carcinogen: N-METHYL-N-NITROSOUREA, 684-93-5, Dose [Inhibitor]: 0.09 MG/200 G BW/D FOR 2 MO BEGINNING 9.5 MO POST-CARCINOGEN DOSE (STUDY DURATION: 11.5 MO), Route [Inhibitor]: GAVAGE, Species: RAT, Strain/Sex: WISTAR/MALE, Target Tissue: Type of Lesion: PROSTATE: ADENOCARCINOMA, Dose [Carcinogen]: 35 MG/KG BW ONCE AT INITIATION OF STUDY, Promoter: TESTOSTERONE PROPIONATE, 57-85-2) was 9/14 (64%), 1/10 (10%), 84%, not determined.

In the case of `CC(C)CC(=O)N[C@H](C(=O)N[C@H](C(=O)N[C@@H](CC(C)C)[C@@H](O)CC(=O)N[C@@H](C)C(=O)N[C@@H](CC(C)C)[C@@H](O)CC(=O)O)C(C)C)C(C)C` (Isovaleryl-VV[Sta]A[Sta]-OH), the “tumour outcome (control, treated, inhibition, significance)” value (Carcinogen: 1,2,3,4,5,6-HEXACHLOROCYCLOHEXANE, 319-84-6, Dose [Inhibitor]: 0.1% IN DIET FOR 12 WK FOLLOWING CARCINOGEN TREATMENT REGIMEN (STUDY DURATION: 48 WK), Route [Inhibitor]: ORAL, Species: MOUSE, Strain/Sex: DDY/MALE, Target Tissue: Type of Lesion: LIVER: NODULAR HYPERPLASIA, Dose [Carcinogen]: 500 PPM IN DIET FOR 24 WK, Promoter: NONE USED) is given as 1/13 (8%), 1/12 (8%), 0%, not significant and the “tumour outcome (control, treated, inhibition, significance)” value (Carcinogen: N-BUTYL-N-(4-HYDROXY-BUTYL)NITROSAMINE, 3817-11-6, Dose [Inhibitor]: 0.1% IN DIET FOR 32 WK FOLLOWING CARCINOGEN TREATMENT REGIMEN (STUDY DURATION: 40 WK), Route [Inhibitor]: ORAL, Species: MOUSE, Strain/Sex: ICR/MALE, Target Tissue: Type of Lesion: URINARY BLADDER: TUMOR, Dose [Carcinogen]: 0.05% IN DRINKING WATER FOR FIRST 8 WK, Promoter: NONE USED) is given as 6/13 (46%), 8/10 (80%), -74%, not calculated.

In the case of `C[C@@H](O)[C@@H]1NC(=O)[C@H](CCCCN)NC(=O)[C@@H](Cc2c[nH]c3ccccc23)NC(=O)[C@H](Cc2ccccc2)NC(=O)[C@@H](NC(=O)[C@H](N)Cc2ccccc2)CSSC[C@@H](C(=O)N[C@H](CO)[C@@H](C)O)NC1=O`, the “tumour outcome (control, treated, inhibition, significance)” value (Carcinogen: N-NITROSOBIS(2-OXOPROPYL)AMINE [60599-38-4], Dose [Inhibitor]: 0, 3 UG/KG/D FOR 4 WK BEGINNING 1 WK PRIOR TO FIRST CARCINOGEN (STUDY DURATION: 40 WK), Route [Inhibitor]: SUBCUTANEOUSLY IMPLANTED OSMOTIC PUMP, Species: HAMSTER, Strain/Sex: SYRIAN/FEMALE, Target Tissue: Type of Lesion: PANCREAS: ADENOCARCINOMA, Dose [Carcinogen]: 10 MG/KG BW ONCE/WK FOR 3 WK (STUDY DURATION: 40 WK), Promoter: NONE) is given as 8/18 (44%), 11/20 (55%), -25%, not significant and the “tumour outcome (control, treated, inhibition, significance)” value (Carcinogen: N-NITROSOBIS(2-OXOPROPYL)AMINE [60599-38-4], Dose [Inhibitor]: 0, 6 UG/KG/D FOR 4 WK BEGINNING 1 WK PRIOR TO FIRST CARCINOGEN (STUDY DURATION: 40 WK), Route [Inhibitor]: SUBCUTANEOUSLY IMPLANTED OSMOTIC PUMP, Species: HAMSTER, Strain/Sex: SYRIAN/FEMALE, Target Tissue: Type of Lesion: PANCREAS: ADENOCARCINOMA, Dose [Carcinogen]: 10 MG/KG BW ONCE/WK FOR 3 WK (STUDY DURATION: 40 WK), Promoter: NONE) is given as 8/18 (44%), 9/20 (45%), -2%, not significant.
